Read-outs that look alike come from different tables or passages of the source.
Assays:
human CB1 receptor = target: T1, human CB1 receptor (Homo sapiens, UniProt P21554); assay: [35S]GTPγS binding assay in membranes of CB1 expressing cells; assay type: biochemical; settings: for EC50: mean±SEM; for Emax: read-out: CB1 % CP Stim
T1 construct: expressed in transfected cells; b94 says CHO for CB1
Protocol: (§1) For the in vivo studies, the drugs were dissolved in either saline or emulphor:ethanol:saline (E:E:S) as indicated.
cLogP calculations. Absolute solubility determinations were not performed. Rather, cLogP calculations were performed using the CS ChemDraw Ultra software (Cambridge Soft Corporation, Cambridge, Mass.). Receptor Binding. HEK-293 cells stably expressing the human CB1 receptor were cultured in DMEM with 10% FBS and Chinese Hamster Ovary (CHO) cells stably expressing the human CB2 receptor were cultured in DMEM with 10% FCS. Cells were harvested by replacement of the media with cold phosphate-buffered saline containing 1 mM EDTA followed by centrifugation at 1000×g for 5 min at 4° C. The pellet was resuspended in 50 mM Tris-HCl containing 320 mM sucrose, 2 mM EDTA and 5 mM MgCl2 (pH 7.4) (centrifugation buffer), then centrifuged at 1000×g for 10 min at 4° C., and the resulting supernatant was saved. This process was repeated twice. The supernatant fractions were combined and centrifuged at 40,000×g for 30 min at 4° C. The resulting P2 pellet was resuspended in assay buffer (50 mM Tris-HCl (pH 7.4), 3 mM MgCl2, 0.2 mM EGTA, and 100 mM NaCl) and protein was determined by the method of Bradford ENRfu(Bradford 1976). Membranes were stored at −80° C. until use. […] The assay was incubated at 30° C. for 1 hr and terminated by addition of ice cold 50 mM Tris-HCl plus BSA (1 mg/ml) (pH 7.4) followed by filtration under vacuum through Whatman GF/B glass fiber filters with 3 washes with cold Tris buffer. Bound radioactivity was determined by liquid scintillation spectrophotometry at 50% efficiency after extraction by shaking samples for 30-60 min with Budget-Solve scintillation fluid. Data are reported as the mean±SEM of three experiments, each performed in triplicate. Ki values were calculated from displacement data using EBDA (Equilibrium Binding Data Analysis; BIOSOFT, Milltown, N.J.). [^35S]GTPγS Binding Assays. Concentration-effect curves were generated by incubating membranes (10 μg prepared from CB1 expressing cells as described above) in assay buffer containing BSA (1 mg/ml) with various concentrations of test compounds in the presence of 20 μM GDP and 0.1 nM [^35S]GTPγS in a 1 ml total volume. […] Basal binding was assessed in the absence of agonist, and nonspecific binding was measured in the presence of 10 μM GTPγS. The reaction was incubated for 90 min at 30° C. and terminated by filtration under vacuum through Whatman GF/B glass fiber filters with 3 washes with cold (4° C.) Tris buffer (50 mM Tris-HCl, pH 7.4). Bound radioactivity was determined by liquid scintillation spectrophotometry at 95% efficiency after extraction overnight in ScintiSafe Econo 1 scintillation fluid. Data are reported as mean±SEM of three experiments, each performed in triplicate. Nonlinear regression analysis was conducted by iterative fitting using JMP (SAS for Macintosh). Net-stimulated [^35S]GTPγS binding is defined as [^35S]GTPγS binding in the presence of drug minus basal and percent stimulation is expressed as (net stimulated [^35S]GTPγS binding/basal)×100%. Behavioral Evaluations. All animals were allowed to acclimate to the observation room overnight. Behavioral effects were assessed in the tetrad model in order to measure potency in producing antinociception, catalepsy, hypothermia, and hypomobility. The baselines for tail-flick latency (2-4 seconds) and rectal temperature were determined prior to i.v. injections. Baseline rectal temperatures were measured using a telethermometer and a thermometer probe inserted to 25 mm (Yellow Springs Instrument Co., Yellow Springs, Ohio). The mice were then given either an i.v. i.c.v. injection of the analog. The mice were placed in individual photocell activity chambers 5 min later. Spontaneous activity was monitored for 10 min in a Digiscan Animal Activity Monitor (Omnitech Electronice, Inc., Columbus, Ohio) as measured by the number of interruptions of 16 photocell beams per chamber.

mice [1] = assay: Spontaneous activity (S.A.), mouse tetrad; assay type: in vivo; settings: for ED50: Mus musculus, iv, vehicle E:E:S (1:1:18), read-out: S.A. ED50 (reducing spontaneous activity)
mice [2] = assay: Tail-flick antinociception (T.F.), mouse tetrad; assay type: in vivo; settings: mice, i.v.; for ED50: Mus musculus, iv, vehicle E:E:S (1:1:18), read-out: T.F. ED50 (antinociception in the tail-flick procedure)
mice [3] = assay: Rectal temperature (R.T.), mouse tetrad; assay type: in vivo; settings: for ED50: Mus musculus, iv, vehicle E:E:S (1:1:18), read-out: R.T. ED50 (lowering rectal temperature)
mice [4] = assay: Relative immobility (R.I.), ring-immobility test, mouse tetrad; assay type: in vivo; settings: for ED50: Mus musculus, iv, vehicle E:E:S (1:1:18), read-out: R.I. ED50 (relative immobility)
[5] = Protocol: By “water-soluble” we mean that 1 mg of material in 1 ml of water gives a clear solution and is water miscible.
as §1

[6] = maximal GTPγS binding as percentage of stimulation produced by CP 55,940

T1 sequence (P21554 whole entry): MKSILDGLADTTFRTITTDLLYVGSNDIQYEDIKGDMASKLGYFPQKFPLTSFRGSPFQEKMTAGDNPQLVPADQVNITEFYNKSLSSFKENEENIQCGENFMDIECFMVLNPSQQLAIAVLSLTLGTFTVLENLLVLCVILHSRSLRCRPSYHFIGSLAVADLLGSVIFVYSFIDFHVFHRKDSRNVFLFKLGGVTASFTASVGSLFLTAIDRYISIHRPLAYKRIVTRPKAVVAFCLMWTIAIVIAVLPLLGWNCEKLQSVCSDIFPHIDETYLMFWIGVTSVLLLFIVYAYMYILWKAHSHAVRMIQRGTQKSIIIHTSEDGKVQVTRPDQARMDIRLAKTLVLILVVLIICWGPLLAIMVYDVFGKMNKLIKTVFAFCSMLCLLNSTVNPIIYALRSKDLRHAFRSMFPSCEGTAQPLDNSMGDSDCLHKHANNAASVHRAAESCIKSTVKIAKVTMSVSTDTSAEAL

Compound: 1-(2-methyl-4-N-piperidinobutyryloxy) [O-2374]
- EC50 (human CB1 receptor; [35S]GTPγS binding, read-out: CB1 EC50): 16.5 ± 6.97 nM
- CB1 % CP Stim (human CB1 receptor; [6]): 80.9 ± 3.73%
- S.A. ED50 (reducing spontaneous activity) (mice [1]; i.v., vehicle saline): 0.18 µmol/kg
- T.F. ED50 (antinociception in the tail-flick procedure) (mice [2]; vehicle saline): 0.41 µmol/kg
- R.T. ED50 (lowering rectal temperature) (mice [3]; i.v., vehicle saline): 0.72 µmol/kg
- R.I. ED50 (relative immobility) (mice [4]; i.v., vehicle saline): 0.57 µmol/kg
- Solubility (water-soluble) ([5]; 1 mg of analog in 1 ml of water, visual observation): Yes

Compound: CC1=CC[C@@H]2[C@@H](C1)c1c(O)cc(C(C)(C)CCCCC(N)=O)cc1OC2(C)C [O-2352, Carboxamido]
- EC50 (human CB1 receptor; CB1 EC50, [35S]GTPγS binding): 42 ± 4 nM
- Emax (human CB1 receptor; [6]): 95 ± 0.3%
- ED50 (mice [1]): 0.16 µmol/kg
- ED50 (mice [2]): 0.84 µmol/kg
- ED50 (mice [3]): 1.72 µmol/kg
- ED50 (mice [4]): 0.93 µmol/kg
- Solubility (water-soluble) [5]: No
- Water solubility of the hydrochloride salt [5]: none of the HCl salts was water-soluble

Compound: CC1=CC[C@@H]2[C@@H](C1)c1c(O)cc(C(C)(C)CCCCC(=O)N3CCOCC3)cc1OC2(C)C [O-2372, Morpholino-carboxamido]
- EC50 (human CB1 receptor; CB1 EC50, [35S]GTPγS binding): 5.88 ± 0.42 nM
- Emax (human CB1 receptor; [6]): 120 ± 1.11%
- ED50 (mice [1]): 0.01 µmol/kg
- ED50 (mice [2]): 0.01 µmol/kg
- ED50 (mice [3]): 0.07 µmol/kg
- ED50 (mice [4]): 0.03 µmol/kg
- Solubility (water-soluble) [5]: No
- Water solubility of the hydrochloride salt [5]: none of the HCl salts was water-soluble

Compound: CC1=CC[C@@H]2[C@@H](C1)c1c(O)cc(C(C)(C)CCCCC(=O)N3CCCCC3)cc1OC2(C)C [O-2373, Piperidino-carboxamido]
- EC50 (human CB1 receptor; CB1 EC50, [35S]GTPγS binding): 13.5 ± 1.81 nM
- Emax (human CB1 receptor; [6]): 119 ± 2.05%
- ED50 (mice [1]): 0.02 µmol/kg
- ED50 (mice [2]): 0.03 µmol/kg
- ED50 (mice [3]): 0.03 µmol/kg
- ED50 (mice [4]): 0.04 µmol/kg
- Solubility (water-soluble) [5]: No
- Water solubility of the hydrochloride salt [5]: none of the HCl salts was water-soluble

Compound: CC1=CC[C@@H]2[C@@H](C1)c1c(O)cc(C(C)(C)CCCCC(=O)N3CCN(C)CC3)cc1OC2(C)C [O-2381, Methylepiperazino-carboxamido]
- ED50 (mice [1]): 21.4 µmol/kg
- ED50 (mice [2]): 34 µmol/kg
- ED50 (mice [3]): 51 µmol/kg
- ED50 (mice [4]): 183 µmol/kg
- Solubility (water-soluble) [5]: No

Compound: CC1=CC[C@@H]2[C@@H](C1)c1c(O)cc(C(C)(C)CCCCC(=O)N3CCCC3)cc1OC2(C)C [O-2399, Pyrrolidino-carboxamido]
- EC50 (human CB1 receptor; CB1 EC50, [35S]GTPγS binding): 275 ± 87.9 nM
- Emax (human CB1 receptor; [6]): 117 ± 4.9%
- ED50 (mice [1]): 0.03 µmol/kg
- ED50 (mice [2]): 0.1 µmol/kg
- ED50 (mice [3]): 0.23 µmol/kg
- ED50 (mice [4]): 0.15 µmol/kg
- Solubility (water-soluble) [5]: No
- Water solubility of the hydrochloride salt [5]: none of the HCl salts was water-soluble

Compound: CC1=CC[C@@H]2[C@@H](C1)c1c(O)cc(C(C)(C)CCCCC(=O)N3CCCCCC3)cc1OC2(C)C [O-2421, Homopiperidino-carboxamido]
- EC50 (human CB1 receptor; CB1 EC50, [35S]GTPγS binding): 23.2 ± 2.06 nM
- Emax (human CB1 receptor; [6]): 81.8 ± 8.96%
- ED50 (mice [1]): 0.15 µmol/kg
- ED50 (mice [2]): 0.16 µmol/kg
- ED50 (mice [3]): 0.44 µmol/kg
- ED50 (mice [4]): 0.86 µmol/kg
- Solubility (water-soluble) [5]: No
